In this experiment the target is T1, human NTCP (Homo sapiens, UniProt Q14973).
T1 sequence (Q14973 1-349): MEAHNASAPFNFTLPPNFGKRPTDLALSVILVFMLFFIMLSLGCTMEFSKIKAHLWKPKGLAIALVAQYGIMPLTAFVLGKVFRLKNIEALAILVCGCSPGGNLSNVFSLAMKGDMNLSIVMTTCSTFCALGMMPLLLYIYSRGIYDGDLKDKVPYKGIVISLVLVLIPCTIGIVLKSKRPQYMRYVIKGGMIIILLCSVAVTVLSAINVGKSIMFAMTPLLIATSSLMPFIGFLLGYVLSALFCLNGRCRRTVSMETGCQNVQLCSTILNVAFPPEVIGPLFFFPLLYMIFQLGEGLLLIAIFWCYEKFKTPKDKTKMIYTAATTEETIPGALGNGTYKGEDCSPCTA
In words: Screening taurocholate uptake assay (96-well, [14C]taurocholate, 10 µM drug). The settings on record: for B-score functional assay: screening taurocholate uptake, 10 µM drug.

Where [1] appears, read: combined ranking of functional and binding screening assays.
The mark [2] stands for this setting: ranking over the functional and the binding screening assay.

Where a name gives a salt, the structure may show the parent alone.

Consider `CN(C)C(=O)Oc1cc(OC(=O)N(C)C)cc(C(O)CNC(C)(C)C)c1.Cl` (stereo not drawn) [Bambuterol hydrochloride], for which the B-score functional assay is listed as -0.006. Also, under setting [1], the Ranking score was determined as 562.701.
With `O=S(=O)(O)CCS` [Mesna], the B-score functional assay is -1.329. The molecule also registered a Ranking score under setting [2] of 127.75.
Take `C[C@]1(Cn2ccnn2)[C@H](C(=O)O)N2C(=O)C[C@H]2S1(=O)=O` [Tazobactam]: the B-score functional assay worked out at 2.889. In addition, the Ranking score under setting [1] is given as 613.948.
For `Cc1cc(C(=O)NNCc2ccccc2)no1` [Isocarboxazid], in that order: 0.681 and 552.74.
Verteporfin: the B-score functional assay is -2.252. For the same molecule, the Ranking score under setting [2] came to 33.9116.
As for `Cc1cccn2c(=O)c(-c3nnn[nH]3)cnc12` [Pemirolast potassium], the B-score functional assay was found to be 0.868. Further, under setting [1], the Ranking score is reported as 607.829.
Turning to `Cc1cccc(Nc2ccccc2C(=O)O)c1C` [Mefenamic acid], the B-score functional assay is given as -1.919. The same molecule returned a Ranking score under setting [2] of 180.289.
Turning to `Clc1ccc2c(c1)C(N1CCNCC1)=Nc1ccccc1O2` [Amoxapine], the B-score functional assay is given as 0.589. The Ranking score under setting [1] is listed as 604.055.
For `CS(=O)(=O)c1ccc([C@@H](O)[C@@H](CO)NC(=O)C(Cl)Cl)cc1` [Thiamphenicol], in that order: -0.089 and 545.996.
For the molecule `CC1=C(CC(=O)O)c2cc(F)ccc2/C1=C\c1ccc([S+](C)[O-])cc1` (stereo not drawn) [Sulindac], the B-score functional assay was -1.878. For the same molecule, under setting [2], the Ranking score amounted to 109.727.
`CCN(CC)CCOC(=O)C(Cc1cccc2ccccc12)CC1CCCO1` (stereo not drawn) [Nafronyl oxalate]: the B-score functional assay is -1.268. The Ranking score under setting [1] was determined as 488.941.
On to `C#C[C@]1(OC(C)=O)CC[C@H]2[C@@H]3CCC4=C[C@@H](OC(C)=O)CC[C@@H]4[C@H]3CC[C@@]21C` [Ethynodiol diacetate], for which the B-score functional assay is -1.671. For the same molecule, the Ranking score under setting [2] is on record as 238.458.
Take `CC(NC(C)(C)C)C(=O)c1cccc(Cl)c1` (stereo not drawn) [Bupropion hydrochloride]: the B-score functional assay is 0.583. Under setting [1], the Ranking score was determined as 557.749.
For `O=C(NCCO[N+](=O)[O-])c1cccnc1` [Nicorandil], under setting [1], the Ranking score amounted to 1149.4. For the setting “B-score”, this molecule displayed a B-score functional assay of 0.976.
With `C=CC1=C(C(=O)O)N2C(=O)[C@@H](NC(=O)/C(=N\O)c3csc(N)n3)[C@H]2SC1` [Cefdinir], the B-score functional assay is recorded as -0.454. The Ranking score under setting [1] stood at 598.124.
On the same counts, the results for `COC(c1ccccc1)(c1ccccc1)[C@H](Oc1nc(C)cc(C)n1)C(=O)O` [Ambrisentan] are -0.389 and 629.311.
On the same counts, the results for `CC(=O)c1ccc2c(c1)N(CCCN1CCC(CCO)CC1)c1ccccc1S2` [Piperacetazine] are -0.935 and 531.5.
With `CCN(CCCCOC(=O)c1ccc(OC)c(OC)c1)C(C)Cc1ccc(OC)cc1` (stereo not drawn) [Mebeverine hydrochloride], the B-score functional assay is recorded as -0.512. In addition, under setting [1], the Ranking score was determined as 474.181.
Regarding `CC[C@H](C)C(=O)O[C@H]1C[C@@H](C)C=C2C=C[C@H](C)[C@H](CC[C@@H]3C[C@@H](O)CC(=O)O3)[C@H]21` [Lovastatin], the B-score functional assay was -0.084. The molecule also had a Ranking score under setting [2] of 175.818.
The molecule `C[C@@H]1C[C@H]2[C@@H]3C[C@H](F)C4=CC(=O)C=C[C@]4(C)[C@@]3(F)[C@@H](O)C[C@]2(C)[C@@]1(O)C(=O)COC(=O)C(C)(C)C` [Flumethasone pivalate] gave a B-score functional assay of 0.019. Also, the Ranking score under setting [1] is 535.546.
For `C=CCOC(Cn1ccnc1)c1ccc(Cl)cc1Cl` (stereo not drawn) [Enilconazole], in that order: -0.129 and 592.625.
For `N=C(N)NC(=O)Cc1c(Cl)cccc1Cl` [Guanfacine hydrochloride], in that order: 0.703 and 635.421.
Turning to `CN1CCN(C(c2ccccc2)c2ccccc2)CC1.Cl` [Cyclizine hydrochloride], the B-score functional assay is recorded as -0.953. For the same molecule, under setting [1], the Ranking score amounted to 578.424.
For `CCOc1ccc2ccccc2c1C(=O)N[C@@H]1C(=O)N2[C@@H]1SC(C)(C)[C@@H]2C(=O)O` [Nafcillin sodium salt monohydrate], the B-score functional assay was 0.036. In addition, the Ranking score under setting [2] stood at 223.052.
As to `CC(C)(C)NC[C@@H](O)COc1cccc2c1CCCC2=O.Cl` [(+) -Levobunolol hydrochloride], the B-score functional assay is on record as -1.002. In addition, the Ranking score under setting [1] was found to be 464.377.
On the same counts, the results for `OC(c1ccccc1)(c1ccccc1)C1CCNCC1` [Azacyclonol] are -0.041 and 525.026.
On the same counts, the results for `CN1CCCC(CC2c3ccccc3Sc3ccccc32)C1` (stereo not drawn) [Metixene hydrochloride] are 0.08 and 516.538.
For `N#Cc1ccc(C(c2ccc(C#N)cc2)n2cncn2)cc1` [Letrozole], in that order: 1.169 and 610.1.
For the molecule `Nc1ccccc1S(N)(=O)=O` [2-Aminobenzenesulfonamide], the B-score functional assay is recorded as -0.592. The Ranking score under setting [1] was 626.378.
For `CCNCC(O)c1cccc(O)c1` (stereo not drawn) [Etilefrine hydrochloride], in that order: -0.021 and 503.552.
On the same counts, the results for `CC(C)(Oc1ccc(C2CC2(Cl)Cl)cc1)C(=O)O` (stereo not drawn) [Ciprofibrate] are 0.025 and 539.316.
On the same counts, the results for `CCCc1nc(C)c2c(=O)[nH]c(-c3cc(S(=O)(=O)N4CCN(CC)CC4)ccc3OCC)nn12` [Vardenafil] are -0.039 and 546.31.
Molecule `CCCN(CCC)C(=O)C(CCC(=O)O)NC(=O)c1ccccc1` (stereo not drawn) [Proglumide] gave a B-score functional assay of 0.098. This molecule yielded a Ranking score under setting [2] of 231.221.
Regarding `CC(C)(C)NCC(O)c1cc(Cl)c(N)c(Cl)c1` (stereo not drawn) [Clenbuterol hydrochloride], the B-score functional assay is -0.705. Besides, the Ranking score under setting [1] amounted to 497.397.
For `CC(C(=O)O)c1ccc(C(=O)c2cccs2)cc1` (stereo not drawn) [Suprofen], the B-score functional assay was -0.917. The Ranking score under setting [1] came to 554.797.
On the same counts, the results for `CC(=O)NC1CCSC1=O` (racemic) [N-Acetyl-DL-homocysteine Thiolactone] are 0.096 and 563.625.
As to `CC(C)OC(=O)C(C)(C)Oc1ccc(C(=O)c2ccc(Cl)cc2)cc1` [Fenofibrate], the B-score functional assay is -0.159. This molecule also returned a Ranking score under setting [2] of 212.979.
On the same counts, the results for `CC(=O)[N-]S(=O)(=O)c1ccc(N)cc1.O.[Na+]` [Sulfacetamide sodic hydrate] are -0.444 and 277.153.
As to `CC(C)[N+](C)(CCOC(=O)C1c2ccccc2Oc2ccccc21)C(C)C` [Propantheline bromide], the B-score functional assay is -0.131. Besides, the Ranking score under setting [1] is on record as 472.136.
